Measured values as given in patent US20040082623A1, “Fmoc-l-leucine and derivatives thereof as ppar-gamma agonists” (priority 2003, published 2004).

Columns and labels:
TNBS-treated Balb/c mice = experiment: TNBS-induced colitis in Balb/c mice; type: in vivo; details: 50 mg/kg/day
Procedure: FIG. 9: F-L-Leu protects against colon inflammation in TNBS-treated Balb/c Mice. A: Ameho histologic scores (left panel) and survival rate (right panel) in TNBS-treated mice injected either with DMSO or F-L-Leu (50 mg/kg/day). B: TNFα and IL-1β mRNA levels in the colon of TNBS-treated mice injected with DMSO or F-L-Leu (50 mg/kg/day). Results are expressed as mean±SEM.
RNA was isolated from 3T3-L1 cells by the acid guanidinium ? thiocyanate/phenol/chloroform method (Chomczynski and Sacchi, 1987). Northern blot analysis of total cellular RNA was performed as described (Auwerx et al., 1989) ? Lipoprotein lipase (LPL), aP2 and 36B4 were used as probes (Graves et al., 1992 ? Laborda, 1991; Lefebvre et al., 1997). For RT-competitive PCR, total RNA (5-10 μg ? was reverse transcribed into complementary DNA (cDNA) (Desreumaux et al., 1999 ? Fajas et al., 1997). The RT reaction mixture was amplified by PCR using sense an ? antisense primers specific for β-actin, TNFα and IL-1β. The samples were subjected t ? 40 PCR cycles, consisting of denaturation for 1 min at 94° C., primer annealing for ? min at 52-58° C., and primer extension for 1.5 min at 72° C. using a Gene Amp PCR ? System 9700 (Perkin-Elner Corporation, Foster City, Calif.). The quantity of mRNA was expressed as the number of TNFα or IL-1β cDNA per β-actin cDNA molecules.
Male Balb/c mice (8 per group) were used for the colitis studies (Jackson laboratories, Bar Harbor, Me.). Colitis was induced by administration of 40 μl of a solution of TNBS (150 mg/kg, Fluka, Saint Quentin Fallavier, France) dissolved in NaCl 0.9% and mixed with an equal volume of ethanol (50% ethanol). This solution was administered intrarectally via a 3.5 F catheter (Ref EO 3416-1, Biotrol, Chelles, France) inserted 4 cm proximal to the anus in anesthesized mice [Xylasine (50 mg/kg of Rompun® 2%, Bayer Pharma, Puteaux, France) and Ketamine (50 mg/kg of Imalgene® 1000, Rhône Mérieux, France)]. Animals were sacrified by cervical dislocation under ether anesthesia two days after TNBS administration. The colon was quickly removed, opened, washed. A 2 cm colonic specimen located precisely 2 cm above the anal canal was dissected systematically in 4 parts. One part was fixed overnight in 4% paraformaldehyde acid at 4° C., dehydrated in alcohol and embedded in paraffin. Sections (5 μm) were then deparaffined with xylene and rehydrated by ethanol treatment. Stained sections with haematoxylin-eosin were examined blindly by a pathologist and scored according to the Ameho criteria (Ameho et al., 1997). The other parts of the colon were used for RNA isolation for the quantification of TNFα and IL1β mRNA expression.

Procedure for db/db mice: Intraperitoneal glucose tolerance test (IPGTT) in C57BL/6j (A) or db/db (B) mice 10 to 12 weeks old (n=8).
All mice were maintained in a temperature-controlled (25° C.) facility with a strict 12 h ? light/dark cycle and were given free access to food (standard mice chow; DO4, UAR ? France) and water.
C57B1/6J and db/db mice (8 per group) were obtained through the Janvier laboratorie ? (Laval-Le Genest, France).

SMILES: CC(C)CC(NC(=O)OCC1c2ccccc2-c2ccccc21)C(=O)O [F-L-Leu, N-(9-fluroroenylmethyloxycarbonyl)-L-Leucine]
- liver weight relative to control or rosiglitazone-treated mice (db/db mice; data not shown): tendency to diminution of the liver weight
- insulin sensitivity compared with an equivalent dose of rosiglitazone (db/db mice; db/db mice, 1 mg/kg/day as printed): improved insulin sensitivity more dramatically
- maximal glycemia in IPGTT (db/db mice; db/db, 10 mg/kg/day i.p., 7 days, DMSO control 500): 420 mg/dL
- time of maximal glucose level after glucose injection (db/db mice; db/db, 10 mg/kg/day, 7 days): 20 min
- time to decrease to normal (100 mg/dl) glucose values (db/db mice; db/db, 10 mg/kg/day, 7 days): ≤ 120 min
- fasting serum insulin levels (mean) (db/db mice; db/db, 7 days treatment, DMSO group 180): 70 μUI/mL
- Ameho histologic score (TNBS-treated Balb/c mice): reduced significantly
- IL-1β mRNA levels in colon (TNBS-treated Balb/c mice): significant decrease
- TNFα mRNA levels in colon (TNBS-treated Balb/c mice): significant decrease
- survival rate (TNBS-treated Balb/c mice; 4 days, two days after TNBS, control 76%): 100%
